# Patent US20160220569A1, “CDK4/6 Inhibitor Dosage Formulations For The Protection Of Hematopoietic Stem And Progenitor Cells During Chemotherapy” (G1 Therapeutics, Inc., priority 2015, published 2016)
# Where “and” joins values, the source holds several entries; their conditions need not be identical. Equal entries are not always repeated. Where two headings read alike, the source gives them in different places.
# Test: Topotecan PK following Compound 1 infusion
# Format: in vivo, human
# Experimental: Blood samples were obtained prior to dosing, at the end of the 30-minute infusion (EOI), and at 0.5, 1, 1.5, 2, 2.5, 4, 6, 8, and 24 hours after the end of infusion. Analysis of plasma concentration versus time data for calculation of standard pharmacokinetic (PK) parameters following intravenous infusion administration was conducted using Phoenix WinNonlin version 6.3 using a nominal infusion duration and scheduled blood sampling times. In Cohort 2 there were 3 subjects who received 1.25 mg/m^2 of topotecan once daily on Days 1 to 5. In Cohort 3 there were 4 subjects who received 0.75 mg/m^2 of topotecan once daily on Days 1 to 5.
# [1] = Topotecan 0.75 mg/m^2 (Cohort 3) with Compound 1 200 mg/m^2, Day 1, Max
# [2] = Topotecan 0.75 mg/m^2 (Cohort 3) with Compound 1 200 mg/m^2, Day 1, Min
# [3] = Topotecan 0.75 mg/m^2 (Cohort 3) with Compound 1 200 mg/m^2, Day 1, individual subjects, monohydrochloride
# [4] = Topotecan 0.75 mg/m^2 (Cohort 3) with Compound 1 200 mg/m^2, Day 4, Max
# [5] = Topotecan 0.75 mg/m^2 (Cohort 3) with Compound 1 200 mg/m^2, Day 4, Min
# [6] = Topotecan 0.75 mg/m^2 (Cohort 3) with Compound 1 200 mg/m^2, Day 4, individual subjects, monohydrochloride
# [7] = Topotecan 1.25 mg/m^2 (Cohort 2) with Compound 1 200 mg/m^2, Day 1, Max
# [8] = Topotecan 1.25 mg/m^2 (Cohort 2) with Compound 1 200 mg/m^2, Day 1, Min
# [9] = Topotecan 1.25 mg/m^2 (Cohort 2) with Compound 1 200 mg/m^2, Day 1, individual subjects, monohydrochloride
# [10] = Topotecan 1.25 mg/m^2 (Cohort 2) with Compound 1 200 mg/m^2, Day 4, Max
# [11] = Topotecan 1.25 mg/m^2 (Cohort 2) with Compound 1 200 mg/m^2, Day 4, Min
# [12] = Topotecan 1.25 mg/m^2 (Cohort 2) with Compound 1 200 mg/m^2, Day 4, individual subjects, monohydrochloride
# [13] = Topotecan […]^2 (Cohort 1) with Compound 1 200 mg/m^2, Day 1, Max
# [14] = Topotecan […]^2 (Cohort 1) with Compound 1 200 mg/m^2, Day 1, Min
# [15] = Topotecan […]^2 (Cohort 1) with Compound 1 200 mg/m^2, Day 1, individual subjects, monohydrochloride
# [16] = Topotecan […]^2 (Cohort 1) with Compound 1 200 mg/m^2, Day 4, Max
# [17] = Topotecan […]^2 (Cohort 1) with Compound 1 200 mg/m^2, Day 4, Min
compound,measurement,setting,value
"CC[C@@]1(O)C(=O)OCc2c1cc1n(c2=O)Cc2cc3c(CN(C)C)c(O)ccc3nc2-1.Cl [topotecan, (S)-10-[(dimethylamino)methyl]-4-ethyl-4,9-dihydroxy-1H-pyrano[3′,4′:6,7]indolizino[1,2-b]quinoline-3,14(4H,12H)-dione monohydrochloride]",AUC24.5,[1],118 ng·h/mL
same,AUCx5,[1],78600 nM·min
same,Cmax,[1],38.5 ng/mL
same,t½,[1],4.70 h
same,AUCinf,"Topotecan 0.75 mg/m^2 (Cohort 3) with Compound 1 200 mg/m^2, Day 1, Max, monohydrochloride",120 h*ng/mL and 15700 min*nM
same,AUC24.5,[2],75.0 ng·h/mL
same,AUCx5,[2],49700 nM·min
same,Cmax,[2],17.9 ng/mL
same,t½,[2],4.04 h
same,AUCinf,"Topotecan 0.75 mg/m^2 (Cohort 3) with Compound 1 200 mg/m^2, Day 1, Min, monohydrochloride",75.9 h*ng/mL and 9950 min*nM
same,AUC24.5,[3],75.0 ng·h/mL and 118 ng·h/mL and 94.7 ng·h/mL
same,AUCinf,[3],75.9 h*ng/mL and 9950 min*nM and 120 h*ng/mL and 15700 min*nM and 96.8 h*ng/mL and 12700 min*nM
same,AUCx5,[3],49700 nM·min and 78600 nM·min and 63400 nM·min
same,Cmax,[3],20.8 ng/mL and 17.9 ng/mL and 38.5 ng/mL and 32.0 ng/mL
same,t½,[3],4.04 h and 4.27 h and 4.70 h
same,Cmax,[4],30.7 ng/mL
same,t½,[4],5.07 h
same,AUCτ,"Topotecan 0.75 mg/m^2 (Cohort 3) with Compound 1 200 mg/m^2, Day 4, Max, monohydrochloride",112 h*ng/mL and 14700 min*nM
same,Cmax,[5],18.4 ng/mL
same,t½,[5],4.63 h
same,AUCτ,"Topotecan 0.75 mg/m^2 (Cohort 3) with Compound 1 200 mg/m^2, Day 4, Min, monohydrochloride",74.4 h*ng/mL and 9740 min*nM
same,AUCτ,[6],74.4 h*ng/mL and 9740 min*nM and 99.7 h*ng/mL and 13100 min*nM and 112 h*ng/mL and 14700 min*nM
same,Cmax,[6],18.4 ng/mL and 30.7 ng/mL and 22.6 ng/mL
same,t½,[6],5.07 h and 4.68 h and 4.73 h
same,AUC24.5,[7],247 ng·h/mL
same,AUCx5,[7],166000 nM·min
same,Cmax,[7],94.1 ng/mL
same,t½,[7],5.09 h
same,AUCinf,"Topotecan 1.25 mg/m^2 (Cohort 2) with Compound 1 200 mg/m^2, Day 1, Max, monohydrochloride",254 h*ng/mL and 33300 min*nM
same,AUC24.5,[8],120 ng·h/mL
same,AUCx5,[8],80400 nM·min
same,Cmax,[8],39.3 ng/mL
same,t½,[8],4.78 h
same,AUCinf,"Topotecan 1.25 mg/m^2 (Cohort 2) with Compound 1 200 mg/m^2, Day 1, Min, monohydrochloride",123 h*ng/mL and 16100 min*nM
same,AUC24.5,[9],247 ng·h/mL and 120 ng·h/mL
same,AUCx5,[9],106000 nM·min and 166000 nM·min and 80400 nM·min
same,Cmax,[9],94.1 ng/mL and 39.3 ng/mL
same,t½,[9],5.09 h and 4.92 h
same,Cmax,[10],104 ng/mL
same,t½,[10],5.97 h
same,AUCτ,"Topotecan 1.25 mg/m^2 (Cohort 2) with Compound 1 200 mg/m^2, Day 4, Max, monohydrochloride",231 h*ng/mL and 30300 min*nM
same,Cmax,[11],33.1 ng/mL
same,t½,[11],4.98 h
same,AUCτ,"Topotecan 1.25 mg/m^2 (Cohort 2) with Compound 1 200 mg/m^2, Day 4, Min, monohydrochloride",124 h*ng/mL and 16300 min*nM
same,AUCτ,[12],231 h*ng/mL and 30300 min*nM and 124 h*ng/mL and 16300 min*nM
same,Cmax,[12],104 ng/mL and 33.1 ng/mL
same,t½,[12],5.97 h and 4.98 h
same,AUC24.5,[13],169 ng·h/mL
same,AUCx5,[13],112000 nM·min
same,Cmax,[13],98.8 ng/mL
same,t½,[13],4.56 h
same,AUCx5,[14],86600 nM·min
same,Cmax,[14],40.2 ng/mL
same,t½,[14],4.11 h
same,AUCinf,"Topotecan […]^2 (Cohort 1) with Compound 1 200 mg/m^2, Day 1, Min, monohydrochloride",17300 nM·min
same,AUC24.5,[15],169 ng·h/mL
same,AUCx5,[15],112000 nM·min
same,t½,[15],4.11 h
same,Cmax,[16],122 ng/mL
same,t½,[16],5.11 h
same,Cmax,[17],56.5 ng/mL
same,t½,[17],4.64 h
same,AUCτ,"Topotecan […]^2 (Cohort 1) with Compound 1 200 mg/m^2, Day 4, Min, monohydrochloride",18800 nM·min
same,t½,"Topotecan […]^2 (Cohort 1) with Compound 1 200 mg/m^2, Day 4, individual subjects, monohydrochloride",4.64 h
same,AUC,"human, plasma, intravenous, Topotecan 0.75 mg/m^2 (Cohort 3) with Compound 1 200 mg/m^2, Day 1, Mean, read-out: AUC24.5",92.8 ng·h/mL
same,AUC(0-inf),"human, plasma, intravenous, Topotecan 0.75 mg/m^2 (Cohort 3) with Compound 1 200 mg/m^2, Day 1, Mean, read-out: AUCinf (converted)",94.4 ng·h/mL and 0.207 µM·h
same,AUC,"human, plasma, intravenous, Topotecan 0.75 mg/m^2 (Cohort 3) with Compound 1 200 mg/m^2, Day 1, Mean, read-out: AUCx5 (converted)",1.03 µM·h
